Entries after “also recorded” stand apart in the source; their conditions may differ.
Experiments:
Clec9a = settings: Non-Patent Document 1; cited from earlier work
[1] = system: mouse-derived dendritic cells (FL-DCs); test: Binding of phage clones to mouse-derived dendritic cells by flow cytometric analysis (Test Example 1); assay type: cell-based; settings: phage clone displaying the peptide, 1.6×10^10 pfu/mL, 1×10^5 mouse-derived dendritic cells, flow cytometry with antibody against the phage
Method: Meanwhile, in the following test examples, unless otherwise indicated, as mouse-derived dendritic cells, dendritic cells (FL-DCs) that were obtained by culturing murine bone marrow cells in the presence of Flt3-L (final concentration 100 ng/ml) for 1 week to induce differentiation were used. In addition, in the following test examples, FL-DCs were analyzed in some cases separately for Plasmacytoid DCs (pDCs), CD11b positive dendritic cells (CD11b^+ DCs), and CD11b negative dendritic cells (CD11b^− DCs). Among the mouse-derived dendritic cells, pDCs is a group of CD11c positive and B220 positive cells; CD11b^+ DCs is a group of CD11c positive, B220 negative and CD11b positive cells among mouse-derived dendritic cells; CD11b^− DCs is a group of CD11c positive, B220 negative, and CD11b negative cells among mouse-derived dendritic cells.
Each of phages recovered by three panning operations was monocloned and amplified. 1×10^5 mouse-derived dendritic cells and 1.6×10^10 pfu/mL of each phage clone were mixed, and then the phage was assayed for the binding to dendritic cells by flow cytometric analysis using an antibody against the phage.
About 60 phage clones obtained were subjected to flow cytometric analysis as described above. As a result, 37 clones shown in Table 1 were identified as clones capable of binding to dendritic cells. […]

[2] = system: dendritic cells contained in splenocytes; test: Binding of phage clones to dendritic cells contained in splenocytes, flow cytometry (Test Example 6); assay type: cell-based, mouse; settings: phage clone 1.6×10^10 pfu/mL, 1×10^5 splenocytes
Method: (§1) Specifically, 1×10^5 splenocytes collected from mice and 1.6×10^10 pfu/mL of each phage clone were mixed, and the biotinylated antibody to the phage was added. Further, streptavidin modified with a fluorescent dye was added, and the binding of the phage to splenocytes was evaluated by flow cytometric analysis.

[3] = system: bone marrow-derived dendritic cells (FL-DCs); test: Binding of biotinylated peptide/streptavidin complex to dendritic cells, flow cytometry (Test Example 7); assay type: cell-based, mouse; settings: 0.6 μg complex, PE-labeled streptavidin, FL-DCs and spleen-derived dendritic cells
Method: A biotinylated peptide/streptavidin complex was produced in the same manner as in Test Example 4 above using each of the peptide consisting of the amino acid sequence of FL4 identified in Test Example 1 above and its scramble peptide (amino acid sequence: YRSIVKA; SEQ ID NO: 38).
Each of various test cells and 0.6 μg of each of various complexes were mixed, and then the binding of each of various complexes to cells was evaluated by flow cytometric analysis. Cells used were 1×10^5 FL-DCs, 1×10^6 CD11c positive cells purified from the spleen using MACS (the spleen-derived dendritic cells) and 1×10^6 murine splenocytes.

[4] = system: CD4^+ T cells contained in splenocytes; test: Binding of phage clones to CD4+ T cells contained in splenocytes, flow cytometry (Test Example 6); assay type: cell-based, mouse; settings: phage clone 1.6×10^10 pfu/mL, 1×10^5 splenocytes
Method: as §1

[5] = system: NeutrAvidin-specific antibody; test: NeutrAvidin-specific antibody titer in sera of mice given biotinylated peptide/NeutrAvidin complex, ELISA (Test Example 12); assay type: in vivo, mouse; settings: 5 μg as NeutrAvidin, base of tail Day 0 and Day 10, serum Day 17, IgG
Text: A biotinylated peptide was synthesized by linking the N-terminus of each of FL4 identified in Test Example 1, a peptide Mut 1 (amino acid sequence: ASYKAIR (SEQ ID NO: 2)) derived from FL4 of which the 1st amino acid residue was substituted by an alanine residue, a peptide Mut 2 (amino acid sequence: VAYKAIR (SEQ ID NO: 3)) derived from FL4 of which the 2nd amino acid residue was substituted by an alanine residue, a peptide Mut 3 (amino acid sequence: VSAKAIR, SEQ ID NO: 43) derived from FL4 of which the 3rd amino acid residue was substituted by an alanine residue, and a peptide Mut 4 (amino acid sequence: VSYKAAR, SEQ ID NO: 44) derived from FL4 of which the […] amino acid residue was substituted by an alanine residue to biotin. Subsequently, a biotinylated peptide/NeutrAvidin complex was produced by mixing each of the obtained biotinylated peptides and NeutrAvidin.
50 μL of physiological saline containing 5 μg of the complex or NeutrAvidin in terms of NeutrAvidin amount was administered into the base of the tail of each 7-week old C57BL/6 mouse on Day 0 and Day 10, and blood was collected on Day 17. As a control, a test was also carried out in the case where only physiological saline was administered in the same manner Meanwhile, in these tests, five mice in each group were used.
Sera were obtained from the blood collected on Day 17 and NeutrAvidin-specific antibody titer (IgG) in the sera was measured by ELISA. In FIG. 18, “NA” refers to the case of administration of NeutrAvidin, and “NA-FL4” refers to the case of administration of the biotinylated FL4/NeutrAvidin complex. Other peptides are shown in the same display format. Further, in FIG. 18, “cont” refers to the case where physiological saline was administered.

dendritic cells = settings: Non-Patent Document 2; cited from earlier work

Chain of Clec9a (Q8BRU4 106-238 limits assumed): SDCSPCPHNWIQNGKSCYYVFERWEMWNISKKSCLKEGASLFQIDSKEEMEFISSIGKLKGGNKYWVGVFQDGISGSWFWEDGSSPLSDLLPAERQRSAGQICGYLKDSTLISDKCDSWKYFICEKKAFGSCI

Substance: WPRFHSSVFHTH (WH peptide)
- binding to Clec9a expressed on dendritic cells (Clec9a): can selectively bind to Clec9a

Substance: VSYKAIR (Amino acid sequence of motif sequence) [FL4, also tested as biotinylated complex]
- binding of phage clone to dendritic cells [1]: bound to all dendritic cells; also recorded: binding to bone marrow-derived dendritic cells was confirmed
- binding of phage clone to dendritic cells contained in splenocytes [2]: bind to all dendritic cells contained in splenocytes; also recorded: equivalent to that of FL8
- binding ability of biotinylated peptide/streptavidin complex to dendritic cells [3]: equivalent to that of the peptide consisting of the amino acid sequence of FL8
- binding of phage clone to CD4+ T cells contained in splenocytes [4]: also bound to CD4^+ T cells contained in splenocytes
- NeutrAvidin-specific antibody production [5]: excellent production ability

Substance: NWYLPWLGTNDW (NW peptide)
- binding ability to dendritic cells (dendritic cells): high binding ability to dendritic cells

Source: patent US11186618B2, “Dendritic-cell-targeted peptide, fusion peptide utilizing said peptide, and vaccine utilizing said fusion peptide” (The Research Foundation for Microbial Diseases of Osaka …, priority 2016, dated 2021)
